Measured values reported in article PMC4801399, “Impact of a CXCL12/CXCR4 Antagonist in Bleomycin (BLM) Induced Pulmonary Fibrosis and Carbon Tetrachloride (CCl4) Induced Hepatic Fibrosis in Mice” (PLoS ONE, 2016).

System: leukocyte mobilization (blood cell counts)
Assay: Hematology measurements after SC administration
Format: in vivo, C57BL/6 mice
Settings: SC 400 μg/mouse; data not shown
Protocol: Non fasted C57BL/6 mice at 7 to 8 weeks of age from Harlan were sacrificed at 0.5, 1, 3, 24 and 48 hours (n = 3/time point) post administration of AMD070 (in 30 mM acetate buffer, pH 5) (400 μg/mouse). All preceding procedures were same as those for AMD070 PK studies via IP injections.

SMILES: NCCCCN(Cc1nc2ccccc2[nH]1)[C@H]1CCCc2cccnc21 [AMD070]
- blood cell count changes compared with IP: magnitude of these changes were lower
